From ChEMBL document CHEMBL3596189, “Perspective: Challenges and opportunities in TB drug discovery from phenotypic screening” (Bioorg Med Chem, 2015)
Values after ≈ are worked out from the molar mass of the structure shown.

Experiments:
[1] = Oral bioavailability in mouse; assay type: ADME, organism-based; details: in vivo
[2] = Elimination half life in mouse; assay type: ADME, organism-based; details: in vivo, read-out: beta t1/2 (converted)
[3] = Systemic clearance in mouse; assay type: ADME, organism-based; details: in vivo
[4] = Volume of distribution in mouse; assay type: ADME, organism-based; details: in vivo
[5] = test system: Mycobacterium tuberculosis; assay: Antimycobacterial activity against Mycobacterium tuberculosis assessed as inhibition of bacterial growth measured in glycerol-containing medium; assay type: functional
[6] = test system: Mycobacterium tuberculosis; assay: Antimycobacterial activity against Mycobacterium tuberculosis infected in mouse assessed as log reduction of lung bacterial load at 50 mg/kg administered for 4 weeks; assay type: functional
[7] = test system: Mycobacterium tuberculosis; assay: Antimycobacterial activity against Mycobacterium tuberculosis infected in mouse assessed as reduction of lung bacterial load at 25 mg/kg, po; assay type: functional

Row | Compound | MIC50 [5] [µM] | also measured
1 | CC1(C)CCC(NC(=O)c2cc3c(Cl)cc(Cl)cc3[nH]2)CC1 | 0.02 (≈ 0.00679 µg/mL) | bioavailability [1]: > 50%; half-life [2]: 5.1 h; clearance [3]: 18.1 mL/min/kg; Vd [4]: 4.1 L/kg
2 | CC1(C)CCC(Cc2cc(O)c(-c3ccccc3)c(=O)[nH]2)CC1 | 0.03 (≈ 0.00934 µg/mL) | 
3 | CC(C)Cc1cc(O)c(-c2ccccc2)c(=O)[nH]1 | 2.2 (≈ 0.535 µg/mL) | 
4 | Cc1ccc(C(=O)N2CCOCC2)cc1Nc1nccn1-c1cc(NC2CC2)ncn1 | 0.04 (≈ 0.0168 µg/mL) | 
5 | Cc1ccc2nc(C)c(C(=O)NCc3ccc(-c4ccncc4)cc3)n2c1 | 0.01 (≈ 0.00356 µg/mL) | log10cfu [6]: 1
6 | Cc1ccc(CNC(=O)c2cnn3c2NC(c2ccccc2)CC3C(F)(F)F)cc1 (stereo unspecified) | 1.9 (≈ 0.787 µg/mL) | 
7 | Cc1nc2ccccn2c1C(=O)NCc1ccccc1 | 0.2 (≈ 0.0531 µg/mL) | 
8 | CC(=O)Nc1ccc(C)c(Nc2nccn2-c2cc(NC3CC3)ncn2)c1 | 1 (≈ 0.363 µg/mL) | 
9 | Cc1cc(C)c2cc(C(=O)NC3CCCCC3)[nH]c2c1 | 0.8 (≈ 0.216 µg/mL) | 
10 | Cc1ccc([C@H]2C[C@@H](C(F)(F)F)n3ncc(C(=O)NCc4ccc(F)cc4)c3N2)cc1 | 0.2 (≈ 0.0865 µg/mL) | log10cfu [7]: 3.5
